Drawing on patent publication US6960582B2, “Guanidino compounds” (Chiron Corporation, priority 2001, dated 2005), this text covers EC50 for two molecules.

The assay concerns the target MC4-R (Homo sapiens, UniProt P32245). The experiment in a line: cAMP Scintillation Proximity Assay (SPA) in cells expressing MC4-R. In kind it is cell-based. To be noted: intercellular cAMP concentration by SPA kit, read-out: in vitro potency (as measured by EC50 value). Here is the method: EC50 values of test compounds were determined by treating cells expressing MC4-R with test compound and lysing the cells and measuring intercellular cAMP concentration with an Amersham-Pharmacia RPA-559 cAMP Scintillation Proximity Assay (SPA) kit. The following compounds were synthesized and tested according to this assay. The following compounds are merely illustrative and should not be construed as limiting of the instant invention.

Broadly, the EC50 is the concentration that produces a half-maximal response.

Chain of MC4-R (P32245 whole entry, species assumed): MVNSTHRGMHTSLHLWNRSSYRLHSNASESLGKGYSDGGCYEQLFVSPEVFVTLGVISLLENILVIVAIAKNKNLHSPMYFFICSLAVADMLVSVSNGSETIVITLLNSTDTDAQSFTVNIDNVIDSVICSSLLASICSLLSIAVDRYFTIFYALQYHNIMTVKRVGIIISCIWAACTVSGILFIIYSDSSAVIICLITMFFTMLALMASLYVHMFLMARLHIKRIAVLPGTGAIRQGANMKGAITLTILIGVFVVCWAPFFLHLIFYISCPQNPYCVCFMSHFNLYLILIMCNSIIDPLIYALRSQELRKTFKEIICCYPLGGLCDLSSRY

With `Cc1ccc(CCN2Cc3cc(NC(=N[C@H]4C[C@H]5C[C@@H]([C@@H]4C)C5(C)C)N4CCN[C@@H](C)C4)ccc3C2=O)c(C)c1` [Example 20, (3S)-N-{2-[2-(2,4-dimethylphenyl)ethyl]-1-oxo-2,3-dihydro-1H-isoindol-5-yl}-3-methyl-N′-[(1S,2S,3S,5R)-2,6,6-trimethylbicyclo[3.1.1]hept-3-yl]piperazine-1-carboximidamide], the EC50 was less than 3 µM. As for `C[C@@H]1[C@@H](N=C(Nc2ccc3c(c2)C(=O)N(CCc2ccc(F)cc2F)C3=O)N2CCN[C@@H](C)C2)C[C@H]2C[C@@H]1C2(C)C` [Example 11, (3S)-N-{2-[2-(2,4-difluorophenyl)ethyl]-1,3-dioxo-2,3-dihydro-1H-isoindol-5yl}-3-methyl-N′-[(1S,2S,3S,5R)-2,6,6-trimethylbicyclo[3.1.1]hept-3-yl]piperazine-1-carboximidamide], the figure is less than 3 µM.
